Key:
[1] = biological target: transient receptor potential melastatin 8 (TRPM8) (Homo sapiens, UniProt Q7Z2W7); conditions: increase of [Ca2+]i; cited from earlier work
[2] = system: Spodoptera litum larvae; conditions: cited from earlier work
[3] = system: most gram-positive and some gram-negative bacteria; conditions: cited from earlier work
[4] = system: SAMP8 mice; conditions: intragastric, 4-month-old SAMP8 mice, 2 months; cited from earlier work
[5] = biological target: CYP2C9 (Homo sapiens, UniProt P11712); conditions: cited from earlier work
[6] = biological target: CYP2C8 (Homo sapiens, UniProt P10632); conditions: cited from earlier work
[7] = biological target: CYP2C19 (Homo sapiens, UniProt P33261); conditions: cited from earlier work
[8] = system: brain blood flow; conditions: 450 mg/kg during a 15-minute period, after simvastatin 2 mg/kg subcutaneously daily for 14 days, SV-129 mice; cited from earlier work
[9] = system: severe sepsis; conditions: patients with severe sepsis, placebo cohort 24%; cited from earlier work
[10] = 510 mg/day, patients, cited from earlier work
[11] = biological target: N-methyl-D-aspartate receptors (NMDARs); conditions: glycine-binding site; read-out: KB, competitive antagonist of NMDARs; cited from earlier work
[12] = biological target: SIRT1 (Homo sapiens, UniProt Q96EB6); conditions: cited from earlier work
[13] = static toxicity tests; cited from earlier work
[14] = system: mouse skin carcinogenesis; conditions: cited from earlier work
[15] = system: fever induced by lipopolysaccharide (LPS); conditions: 50 or 100 mg/kg, i.p., 0 and 2 h; rats; cited from earlier work
[16] = system: carrageenan; conditions: 25, 50 or 100 mg/kg, i.p., immediately and 2 h after carrageenan; cited from earlier work
[17] = biological target: cyclo-oxygenase-2 (COX-2) (Homo sapiens, UniProt P35354); conditions: independently of NF-κB activation; cited from earlier work
[18] = system: fibroblasts, peripheral blood mononuclear cells (PBMCs), myoblasts; assay: Reversal of aging (predicted age) in cultured young/old cells contacted with disulfiram plus potentiating ingredients; type: cell-based; conditions: concentrations 0.000005 to 80 μM; potentiating ingredient as high as 25 μM
[19] = system: THP1 HMGB1 Lucia cells; assay: Pyroptosis inhibition luciferase assay, LPS + nigericin, HMGB1 reporter (QUANTI-Luc); type: cell-based; conditions: compound alone; 1 μg/ml LPS 3 h, then 10 μM nigericin 3 h
[20] = system: neuroblastoma cells; conditions: cited from earlier work
[21] = system: influenza virus H1N1; conditions: cited from earlier work
[22] = system: ProDH (proline dehydrogenase); conditions: competitive; plants; cited from earlier work
[23] = doses up to 750 mg/kg bw; cited from earlier work
[24] = rats, doses up to 2000 mg/kg bw; cited from earlier work

Chain of CYP2C19 (P33261 whole entry, species assumed): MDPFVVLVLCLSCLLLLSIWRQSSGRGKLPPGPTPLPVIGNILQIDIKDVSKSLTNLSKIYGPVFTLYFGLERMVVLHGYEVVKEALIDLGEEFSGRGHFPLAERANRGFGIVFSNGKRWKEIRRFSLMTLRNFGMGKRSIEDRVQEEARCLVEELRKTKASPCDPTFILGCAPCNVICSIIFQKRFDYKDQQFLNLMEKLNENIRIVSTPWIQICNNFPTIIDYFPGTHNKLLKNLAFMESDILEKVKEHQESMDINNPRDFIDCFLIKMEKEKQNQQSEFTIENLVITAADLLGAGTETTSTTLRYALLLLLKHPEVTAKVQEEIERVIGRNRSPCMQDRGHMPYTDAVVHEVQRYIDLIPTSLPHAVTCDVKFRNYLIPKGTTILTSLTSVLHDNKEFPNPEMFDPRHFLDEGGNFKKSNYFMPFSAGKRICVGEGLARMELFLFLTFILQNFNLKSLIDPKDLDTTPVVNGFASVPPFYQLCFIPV
Chain of cyclo-oxygenase-2 (COX-2) (P35354 18-604, species assumed): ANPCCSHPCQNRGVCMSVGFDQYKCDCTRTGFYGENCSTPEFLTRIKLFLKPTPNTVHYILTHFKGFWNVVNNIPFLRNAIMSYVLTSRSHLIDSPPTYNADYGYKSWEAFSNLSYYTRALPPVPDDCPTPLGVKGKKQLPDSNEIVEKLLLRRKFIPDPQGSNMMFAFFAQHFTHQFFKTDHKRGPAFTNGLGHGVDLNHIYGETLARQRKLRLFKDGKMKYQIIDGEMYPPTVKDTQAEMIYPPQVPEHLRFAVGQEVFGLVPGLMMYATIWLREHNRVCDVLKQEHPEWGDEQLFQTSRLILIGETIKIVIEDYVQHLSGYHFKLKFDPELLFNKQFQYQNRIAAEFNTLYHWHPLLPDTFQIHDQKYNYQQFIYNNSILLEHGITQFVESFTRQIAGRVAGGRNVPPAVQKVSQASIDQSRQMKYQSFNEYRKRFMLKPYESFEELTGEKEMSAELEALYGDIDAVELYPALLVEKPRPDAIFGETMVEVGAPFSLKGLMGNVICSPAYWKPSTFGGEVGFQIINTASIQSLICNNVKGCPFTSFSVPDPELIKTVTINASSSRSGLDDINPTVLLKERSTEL
Chain of CYP2C9 (P11712 whole entry, species assumed): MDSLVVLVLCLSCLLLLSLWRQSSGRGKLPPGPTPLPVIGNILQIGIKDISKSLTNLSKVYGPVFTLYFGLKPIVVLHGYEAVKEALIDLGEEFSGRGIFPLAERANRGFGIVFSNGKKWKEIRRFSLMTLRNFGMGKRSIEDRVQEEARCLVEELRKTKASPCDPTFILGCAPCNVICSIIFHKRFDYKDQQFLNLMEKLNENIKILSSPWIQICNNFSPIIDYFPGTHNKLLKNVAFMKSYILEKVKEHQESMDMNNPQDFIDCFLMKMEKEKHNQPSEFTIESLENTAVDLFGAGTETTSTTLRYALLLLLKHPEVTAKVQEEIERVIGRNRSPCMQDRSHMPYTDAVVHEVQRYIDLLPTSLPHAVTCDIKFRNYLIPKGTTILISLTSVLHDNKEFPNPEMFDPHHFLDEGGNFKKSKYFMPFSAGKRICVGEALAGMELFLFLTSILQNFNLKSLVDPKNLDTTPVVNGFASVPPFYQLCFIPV
Chain of SIRT1 (Q96EB6 whole entry, species assumed): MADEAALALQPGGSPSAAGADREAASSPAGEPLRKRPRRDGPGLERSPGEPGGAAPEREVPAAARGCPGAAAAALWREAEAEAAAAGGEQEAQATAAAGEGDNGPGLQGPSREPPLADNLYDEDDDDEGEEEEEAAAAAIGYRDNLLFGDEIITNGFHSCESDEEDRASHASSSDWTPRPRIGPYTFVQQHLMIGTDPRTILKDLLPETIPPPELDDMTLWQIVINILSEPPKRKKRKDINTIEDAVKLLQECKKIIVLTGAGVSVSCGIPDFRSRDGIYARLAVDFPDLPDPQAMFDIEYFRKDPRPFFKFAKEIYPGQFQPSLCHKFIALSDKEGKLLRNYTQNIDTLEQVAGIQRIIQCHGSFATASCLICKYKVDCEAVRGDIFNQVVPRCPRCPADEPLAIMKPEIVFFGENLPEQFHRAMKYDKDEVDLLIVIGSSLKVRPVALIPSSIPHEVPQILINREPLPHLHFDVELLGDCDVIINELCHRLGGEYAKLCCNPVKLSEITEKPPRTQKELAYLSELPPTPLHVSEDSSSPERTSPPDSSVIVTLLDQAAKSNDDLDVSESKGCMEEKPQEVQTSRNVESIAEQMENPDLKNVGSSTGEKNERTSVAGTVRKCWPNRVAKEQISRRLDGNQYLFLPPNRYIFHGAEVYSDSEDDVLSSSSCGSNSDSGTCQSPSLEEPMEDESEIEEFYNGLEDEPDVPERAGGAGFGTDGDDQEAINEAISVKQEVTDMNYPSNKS
Chain of CYP2C8 (P10632 whole entry): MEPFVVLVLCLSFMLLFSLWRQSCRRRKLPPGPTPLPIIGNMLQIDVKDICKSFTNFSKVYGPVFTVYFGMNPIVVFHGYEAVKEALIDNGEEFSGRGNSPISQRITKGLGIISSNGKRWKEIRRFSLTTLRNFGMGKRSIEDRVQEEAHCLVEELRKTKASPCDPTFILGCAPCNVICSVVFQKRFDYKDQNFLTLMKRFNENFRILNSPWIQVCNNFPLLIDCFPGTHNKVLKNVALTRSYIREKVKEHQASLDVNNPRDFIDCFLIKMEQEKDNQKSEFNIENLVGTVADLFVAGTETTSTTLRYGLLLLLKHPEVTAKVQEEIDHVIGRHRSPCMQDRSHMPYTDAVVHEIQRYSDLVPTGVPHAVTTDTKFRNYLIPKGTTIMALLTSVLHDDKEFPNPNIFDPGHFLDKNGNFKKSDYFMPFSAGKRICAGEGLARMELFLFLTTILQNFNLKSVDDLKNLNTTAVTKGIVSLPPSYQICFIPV
Chain of transient receptor potential melastatin 8 (TRPM8) (Q7Z2W7 whole entry, species assumed): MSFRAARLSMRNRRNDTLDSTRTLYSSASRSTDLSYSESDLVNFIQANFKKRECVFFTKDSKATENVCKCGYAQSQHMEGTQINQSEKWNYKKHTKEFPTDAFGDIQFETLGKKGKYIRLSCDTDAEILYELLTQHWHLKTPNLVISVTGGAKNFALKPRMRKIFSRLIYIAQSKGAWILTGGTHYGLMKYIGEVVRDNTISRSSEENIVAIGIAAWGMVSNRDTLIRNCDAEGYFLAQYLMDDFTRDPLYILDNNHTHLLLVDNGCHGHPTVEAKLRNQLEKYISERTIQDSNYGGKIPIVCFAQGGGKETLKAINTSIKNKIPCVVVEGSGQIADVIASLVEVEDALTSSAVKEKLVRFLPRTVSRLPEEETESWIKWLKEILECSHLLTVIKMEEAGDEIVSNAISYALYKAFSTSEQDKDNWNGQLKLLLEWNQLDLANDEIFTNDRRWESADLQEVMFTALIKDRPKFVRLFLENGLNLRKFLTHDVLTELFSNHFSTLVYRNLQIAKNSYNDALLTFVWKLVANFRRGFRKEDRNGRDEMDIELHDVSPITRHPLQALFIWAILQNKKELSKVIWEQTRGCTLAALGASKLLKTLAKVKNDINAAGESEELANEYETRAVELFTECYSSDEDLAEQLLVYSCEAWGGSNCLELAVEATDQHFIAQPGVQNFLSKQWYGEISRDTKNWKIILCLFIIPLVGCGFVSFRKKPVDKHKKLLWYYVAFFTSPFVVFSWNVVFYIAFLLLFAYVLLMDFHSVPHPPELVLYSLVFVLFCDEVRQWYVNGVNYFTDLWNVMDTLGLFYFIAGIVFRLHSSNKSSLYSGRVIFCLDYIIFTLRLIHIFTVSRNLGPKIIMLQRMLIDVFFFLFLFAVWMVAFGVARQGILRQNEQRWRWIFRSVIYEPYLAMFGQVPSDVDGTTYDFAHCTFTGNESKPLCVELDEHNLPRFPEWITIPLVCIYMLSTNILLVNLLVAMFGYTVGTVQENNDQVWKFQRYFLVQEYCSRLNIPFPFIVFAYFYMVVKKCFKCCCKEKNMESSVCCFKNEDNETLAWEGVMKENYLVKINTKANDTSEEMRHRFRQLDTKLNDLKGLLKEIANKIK

Q: With `CC1CCC(C(C)C)C(O)C1` (single isomer, unassigned; (-)) [(−)-Menthol] as the compound, how does the “binding and activation of TRPM8” value [1] read?
A: (−)-Menthol is a key component of peppermint oil that binds and activates

Q: With `CCCC=C1OC(=O)c2ccccc21` [3-Butylidenephthalide] as the compound, how does the “LC50, larvicidal activity” value [2] read?
A: activity (LC50 of 1.56 mg/g for Spodoptera litum larvae).

Q: With `O=C(O)c1ccc(O)cc1` [4-Hydroxybenzoic acid] as the compound, how does the “IC50, inhibition of most gram-positive and some gram-negative bacteria” value [3] read?
A: IC50 of 160 μg/mL.

Q: For `CCCCC1OC(=O)c2ccccc21` (centres unmarked) [Butylphthalide], which “spatial learning and memory ability” value [4] is on record?
A: 2 months significantly improved spatial learning and memory ability.

Q: For `C[C@@H]1CC[C@H]2C(C)(C)[C@H]3C[C@@]12CC[C@@]3(C)O` [Cedrol], which “inhibitory effect on CYP2C9” value [5] is on record?
A: weak

Q: What about the “inhibitory effect on CYP2C8” value [6] of the same compound?
A: weak

Q: What about the “inhibitory effect on CYP2C19” value [7] of the same compound?
A: weak

Q: With `N=C(N)NCCC[C@H](N)C(=O)O` [L-Arginine] as the compound, how does the hyperemia [8] read?
A: minute period) amplifies and sustains the hyperemia (38%) and increases

Q: What about the “Resolution of shock at 72 hours, share of patients” value [9] of the same compound?
A: 72 hours is achieved by 40% and 24% of the patients in the L-Arginine

Q: What does the source list for `C[N+](C)(C)C[C@H](O)CC(=O)[O-]` [L-Carnitine]?
A: total time for dozing off during the daytime ([10]; versus placebo-treated periods): L-carnitine (Levocarnitine) treatment significantly improved the total; serum acylcarnitine levels [10]: L-carnitine (Levocarnitine) efficiently increased serum acylcarnitine; serum triglycerides concentration [10]: levels, and reduced serum triglycerides concentration.

Q: For `N[C@@H](Cc1ccccc1)C(=O)O` [L-Phenylalanine], which Kb [11] is on record?
A: 573 µM

Q: With `NC(=O)c1cccnc1` [Nicotinamide] as the compound, how does the “inhibition of SIRT1” value [12] read?
A: reactions. Nicotinamide is an inhibitor of SIRT1.

Q: With `CCCCCCCCC(=O)NCc1ccc(O)c(OC)c1` [Nonivamide] as the compound, how does the 4d-EC50 [13] read?
A: 5.1 mg/L in static toxicity tests.

Q: For `CCCCCCCC(=O)CCc1ccc(O)c(OC)c1` [Paradol], which “inhibition of tumor promotion” value [14] is on record?
A: Zingiberaceae plants. Paradol is an effective inhibitor of tumor promotion

Q: Which “effect on LPS-induced fever” value [15] does the source give for `Cc1cc2nc3c(=O)[nH]c(=O)nc-3n(C[C@H](O)[C@H](O)[C@H](O)CO)c2cc1C` [Riboflavin] here?
A: inhibited the fever induced by lipopolysaccharide (LPS) in rats.

Q: And the “antiedema and antinociceptive effects” value [16]?
A: induced antiedema and antinociceptive effects. The antinociceptive effect

Q: For `O=C(O)c1ccccc1O` [Salicylic acid], which “inhibition of COX-2 activity” value [17] is on record?
A: Salicylic acid (2-Hydroxybenzoic acid) inhibits cyclo-oxygenase-2

Q: Which results are given for `CC(C)(C)c1cc(O)ccc1O` [TBHQ, tert-Butylhydroquinone]?
A: ability in combination with disulfiram to reverse aging in the cells [18]: identified as a potentiating ingredient; pyroptosis inhibition (HMGB1 luciferase reporter in supernatant) [19]: no effect on pyroptosis inhibition or a clear IC50

Q: With `COc1cc(CCC(C)=O)ccc1O` [Zingerone] as the compound, how does the “growth of neuroblastoma cells” value [20] read?
A: agent, and inhibits the growth of neuroblastoma cells.

Q: With `OC[C@H]1O[C@@H]2O[C@H]3[C@H](O)[C@@H](O)[C@@H](O[C@H]4[C@H](O)[C@@H](O)[C@@H](O[C@H]5[C@H](O)[C@@H](O)[C@@H](O[C@H]6[C@H](O)[C@@H](O)[C@@H](O[C@H]7[C@H](O)[C@@H](O)[C@@H](O[C@H]8[C@H](O)[C@@H](O)[C@@H](O[C@H]1[C@H](O)[C@H]2O)O[C@@H]8CO)O[C@@H]7CO)O[C@@H]6CO)O[C@@H]5CO)O[C@@H]4CO)O[C@@H]3CO` [β-Cyclodextrin] as the compound, how does the anti-influenza virus activity [21] read?
A: Cyclodextrin has anti-influenza virus H1N1 activities.

Q: Which “inhibition of ProDH” value [22] does the source give for D-(-)-Lactic acid here?
A: inhibitor of ProDH (proline dehydrogenase) in plants.

Q: Which “genotoxic effects, mouse micronucleus test” value [23] does the source give for Rebaudioside A here?
A: rebaudioside A do not cause any genotoxic effects at any of the doses

Q: And the “genotoxic effects, unscheduled DNA synthesis test” value [24]?
A: rebaudioside A do not cause any genotoxic effects at any of the doses
